Assays:
IL-1RI = biological target: T1, IL-1RI (Mus musculus, UniProt P13504); assay: Binding to IL-1RI: displacement of 125I-IL-1β on cells expressing IL-1RI selectively; details: displacement of 125I IL-1β equilibrium binding on 10^6 cells; murine thymoma clone EL4-6.1
T1 construct: Cells which express IL-1RI selectively (e.g. the murine thymoma clone EL4-6.1); endogenous in cells; host or cells: EL4-6.1 (murine thymoma clone)
T1 sequence (P13504 20-576): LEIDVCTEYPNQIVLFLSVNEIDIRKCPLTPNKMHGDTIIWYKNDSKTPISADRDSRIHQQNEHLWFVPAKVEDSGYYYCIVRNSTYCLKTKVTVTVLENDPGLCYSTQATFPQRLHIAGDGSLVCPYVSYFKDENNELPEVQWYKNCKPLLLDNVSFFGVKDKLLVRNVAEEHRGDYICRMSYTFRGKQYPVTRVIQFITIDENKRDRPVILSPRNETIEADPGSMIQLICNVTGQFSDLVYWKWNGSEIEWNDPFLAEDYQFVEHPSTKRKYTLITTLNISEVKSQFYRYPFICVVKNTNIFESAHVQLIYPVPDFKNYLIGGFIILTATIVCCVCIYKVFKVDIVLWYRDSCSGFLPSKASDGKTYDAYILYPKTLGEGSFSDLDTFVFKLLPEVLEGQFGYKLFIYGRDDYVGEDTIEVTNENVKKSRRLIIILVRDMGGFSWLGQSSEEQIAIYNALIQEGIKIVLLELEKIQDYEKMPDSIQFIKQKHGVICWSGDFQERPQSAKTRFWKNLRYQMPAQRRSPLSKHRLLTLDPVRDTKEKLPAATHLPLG
Description: (§1) The inhibitory activity of the improved IL-1ra mutants is measured in receptor binding assays, using IL-1ra as the reference standard. Cells which express IL-1RI selectively (e.g. the murine thymoma clone EL4-6.1) and cells which express IL-1RII selectively (e.g. Burkitt's human lymphoma RAJI clone 1H7) are chosen as target cells. The number of receptors per cell and the binding affinity (Kd) in both the lines are calculated from saturation curves obtained by incubating the cells (10^6 cells/test tube in a final volume of 0.1 ml of culture medium with NaN3) with increasing doses of IL-1β labelled with 125I in the presence or absence of a 500-fold molar excess of unlabelled IL-1β (for calculating non-specific binding, generally always less than 5-10%) for the optimum times and at the optimum temperatures for attaining equilibrium (generally 2 hours at room temperature) (Scapigliati et al. FEBS Lett. 243: 394, 1989). To calculate the inhibition activity, tests are conducted by incubating the cells with a concentration of radiolabelled IL-1β corresponding to approximately half of the Kd in the absence or in the presence of stepped doses of IL-1ra (reference standard) or of the improved mutant.
(§2) The improved inhibitory activity of the mutants is determined by calculating the shift of the inhibition curve towards the lower doses when compared with the curve of IL-1ra.

IL-1RII = biological target: T2, IL-1RII (Homo sapiens, UniProt P27930); assay: Binding to IL-1RII: displacement of 125I-IL-1β on cells expressing IL-1RII selectively; details: displacement of 125I IL-1β equilibrium binding on 10^6 cells
T2 construct: cells which express IL-1RII selectively (e.g. Burkitt's human lymphoma RAJI clone 1H7); endogenous in cells; host or cells: RAJI clone 1H7 (Burkitt's human lymphoma)
T2 sequence (P27930 14-398): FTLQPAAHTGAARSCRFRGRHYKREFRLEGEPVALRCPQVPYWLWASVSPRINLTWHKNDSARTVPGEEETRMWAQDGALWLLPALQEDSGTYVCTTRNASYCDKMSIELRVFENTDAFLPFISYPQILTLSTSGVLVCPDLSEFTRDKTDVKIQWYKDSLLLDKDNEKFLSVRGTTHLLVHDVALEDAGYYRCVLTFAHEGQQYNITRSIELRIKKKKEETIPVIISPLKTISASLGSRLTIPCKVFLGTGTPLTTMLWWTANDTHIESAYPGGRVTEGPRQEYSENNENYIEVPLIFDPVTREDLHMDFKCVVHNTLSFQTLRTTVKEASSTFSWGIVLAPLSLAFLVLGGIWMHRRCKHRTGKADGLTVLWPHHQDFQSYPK
Description: as §1, §2

murine thymocytes = assay: Inhibition of IL-1β-induced proliferation of murine thymocytes; format: cell-based, mouse; details: for Thymocyte proliferation to IL-1β 30 pg/ml, ID50: murine thymocytes; for Thymocyte proliferation to IL-1β 300 pg/ml, ID50: C3H/HeJ thymocytes with PHA, 72 hours
Description: 1. Proliferation of murine thymocytes: normal thymocytes are obtained by breaking up thymus glands of C3H/HeJ mice (resistant to bacterial endotoxin) aged 4-8 weeks. The thymocytes (5×10^5 cells/well of Cluster^96 plates) are incubated for 72 hours in RPMI-1640 culture medium with addition of antibiotics, L-glutamine, 2-ME, HEPES and 5% foetal calf serum at 37° C. in air with 5% CO2. […] To determine the proliferation of the thymocytes induced by IL-1, at the end of 72 hours of incubation […] of culture medium containing […] of tritiated thymidine are added to each well. After another 18 hours, the cells from each well are harvested onto small glass-fibre disks and the radioactivity incorporated (proportional to the proliferation of the cells) is measured with a β-counter. For determination of the inhibitory capacity of the improved mutants of IL-1ra , the proliferation of the thymocytes is measured in response to the minimum dose of IL-1 that induces optimum proliferation (generally around 0.3 ng/ml) in the absence or in the presence of stepped doses of IL-1ra (control standard) or of the improved mutants. The improved inhibitory activity of the mutants is determined by calculating the shift of the inhibition curve towards the lower doses when compared with the curve of IL-1ra .

human osteosarcoma MG-63 = assay: Inhibition of IL-1β-induced IL-6 production in MG-63 cells; format: cell-based; details: MG-63 cells stimulated with IL-1 around 0.3 ng/ml, 48 hours
Description: The quantity of IL-6 in the culture supernatants is measured by a commercial ELISA assay or determined in the biological assay of proliferation of 7TD1 cells.

IL-1β [1] = assay: Inhibition of IL-1β-induced hypoglycaemia in vivo; details: hypoglycaemia induced in the mouse by 5.0 μg/kg IL-1β, intraperitoneal, serum glucose after two hours
Description: 1. Induction of hypoglycaemia: C3H/HeJ mice or mice of some other strain (3-5 mice/test group) receive stepped doses of IL-1β by intraperitoneal administration. After two hours the animals are killed and the blood is collected for preparation of the serum. The serum glucose content is determined after reaction with glucose oxidase in a commercial calorimetric assay.

IL-1β [2] = assay: Inhibition of IL-1β-induced neutrophilia in vivo; details: neutrophilia induced in the mouse by 150 ng/kg IL-1β; antagonist intraperitoneally at -15 min, 0, +15 min; read four hours after treatment
Description: 2. Induction of neutrophilia: C3H/HeJ mice or mice of some other strain (3 mice/test group) receive stepped doses of IL-1β with a single intraperitoneal administration. The increase of circulating neutrophils induced by IL-1 is evaluated by cytofluorimetry four hours after the treatment.

[3] = Burkitt's human lymphoma RAJI clone 1H7

Row | Binding to IL-1RI, ID50 (IL-1RI) | Binding to IL-1RII, ID50 (IL-1RII; [3]) | Binding to IL-1RII, ID50 (IL-1RII; RAJI clone 1H7, unit as printed in this cell) | Substance | Thymocyte proliferation to IL-1β 30 pg/ml, ID50 (murine thymocytes) | Thymocyte proliferation to IL-1β 300 pg/ml, ID50 (murine thymocytes) | IL-6 production, ID50 (human osteosarcoma MG-63) | Hypoglycaemia, ID50 (IL-1β [1]) | Neutrophilia, ID100 (IL-1β [2])
1 | 0.34 nM | 19.60 nM |  | IL-1ra: wild type IL-1 receptor antagonist, a mature protein of 152 amino acids, used as reference standard [reference compound] | 0.813 ng/mL | 4.10 ng/mL | 3.60 ng/mL | 0.968 mg/kg | 0.225 mg/kg
2 | 0.19 nM |  | 1.8 nM | MILRA-2: IL-1ra mutant T109→A (alanine in position 109 of the mature protein) |  | 1.75 ng/mL | 1.12 ng/mL |  | 
3 | 0.22 nM | 70.70 nM |  | MILRA-3: IL-1ra double mutant N91/T109→R/A | 0.285 ng/mL |  |  | 0.076 mg/kg | 

Row | Substance | Binding to IL-1RI, ID50 (IL-1RI) | Binding to IL-1RII, ID50 (IL-1RII; [3]) | Binding to IL-1RII, ID50 (IL-1RII; RAJI clone 1H7, unit as printed in this cell) | Thymocyte proliferation to IL-1β 30 pg/ml, ID50 (murine thymocytes) | Thymocyte proliferation to IL-1β 300 pg/ml, ID50 (murine thymocytes) | IL-6 production, ID50 (human osteosarcoma MG-63) | Hypoglycaemia, ID50 (IL-1β [1]) | Neutrophilia, ID100 (IL-1β [2])
4 | MILRA-1: IL-1ra mutant N91→R (arginine in position 91 of the mature protein) | 0.17 nM | 13.20 nM |  |  | 1.78 ng/mL | 0.62 ng/mL | 0.128 mg/kg | < 0.0225 mg/kg
